The text below walks through data of publication PMC4991483 (Oncotarget, 2016).

The test system of one series is STAT3. The conditions noted are these: cited from earlier work.
Series [1] is described as follows: HPLC-based glutathione (GSH) reactivity / chemical stability assay, 10 mM GSH with TCEP-HCl. Particulars: 100 μM compound; for K (kobs), one phase decay / Tau, one phase decay: 10 mM TCEP-HCl, 50 mM HEPES pH 7.4; for reactivity with GSH: 10 h timescale.
Experimental: From 10 mM compound stock solutions in DMSO 10 μL aliquots were transferred to an analytical HPLC vial containing 990 μL of reaction buffer (10.0 mM reduced GSH, 10.0 mM tris(2-carboxyethyl)phosphine hydrochloride (TCEP-HCl) and 50 mM HEPES buffered to pH 7.4) directly preceding 40.0 μL injections continued over a periodic time course. The process was automated by a Hewlett Packard Series 1100 analytical HPLC system fitted with an Agilent ZORBAX 3.5 μm Eclipse XDB-C18 column (23.0–24.0°C) under a linear elution gradient from H2O (double distilled and de-ionized to 18.2 MΩ cm) with 0.10 v/v % TFA to 100% HPLC grade CH3CN over 8.00 min followed by 2.00 min of sustained CH3CN under a 1.200 mL min^−1 flow rate. […] The data, measured in three replicates was fit to a one-phase exponential decay model (GraphPad PRISM) and kinetic parameters extracted from (1).
(1) A(t)=(A0−A∞)e^−kobs^t+A∞
The test system of another series is glutathione (GSH). The series is described as follows: physchem. The conditions noted are these: HEPES buffer with reduced glutathione (GSH) and TCEP-HCl, pH 7.4.
The subject of another series is activated STAT3 dimer. The arrangement: method as in PMID 21618433. Particulars: STAT3 EMSA assay; read-out: inhibition of activated STAT3 dimerization; cited from earlier work. On the technique in general: In EMSA bound probe runs differently from free probe, usually more slowly.
Another series addresses STAT3:DNA binding. The conditions noted are these: approximate, reported value; read-out: approximate IC50 for the disruption of STAT3:DNA binding; cited from earlier work.
The target of series [2] is recombinant, full-length STAT3 (Homo sapiens, UniProt P40763). Nature of the series: Incubation of recombinant full-length STAT3 with S3I-201, tryptic digestion and LC-MS/MS. Particulars: 500 μM S3I-201 (80-fold molar excess), 1 h, 37°C.
Experimental: The incubation was then quenched by the addition of dithiothreitol (DTT) to a final concentration of 0.5 mM and incubation at 55°C for 30 min. Free sulfhydryl groups were alkylated with 2-iodoacetamide (Sigma) at a final concentration of 1.5 mM for 45 min at room temperature. The samples were subjected to trypsin (Promega) digestion (0.5 μg of trypsin per reaction), lyophilized, re-suspended in 0.1% formic acid, and desalted using ZipTip C18 (EMD Millipore) prior to analysis. Samples were analyzed by LC-MS/MS on a nanoLC ultra HPLC system (Eksigent) coupled to a Thermo Scientific Orbitrap-Elite.
The aqueous and organic mobile phases consisted of 0.1% formic acid in water or CH3CN respectively. Organic mobile phase composition was varied over each hour long LC-MS/MS analysis as follows: 2% from 0 to 1 min, 10% to 35% from 1 to 35 min, 80% from 35.5 to 44.5 min, 2% from 45 to 60 min.
In series [3] the target is T1, purified STAT3 (Homo sapiens, UniProt P40763). Nature of the series: In vitro kinetic labeling of purified STAT3 protein by fluorescent probe (SDS-PAGE fluorescence). Type of series: biochemical. The conditions noted are these: 100 μM, 0-4 h, 4°C. The protocol:
1 μg of purified STAT3 (SignalChem) protein was incubated with 100 μM 4a at 4°C. At the indicated time points the reaction was quenched with Laemmli loading buffer containing 1.43 M β-mercaptoethanol. Quenched samples were then subjected to 4-20% SDS-PAGE and imaged using the Chemi-Doc MP system (BIO-RAD). Following gel quantification (Image Lab software, BIO-RAD) the data points were plotted and visualized by GraphPad PRISM software.

In a further series the target is T2, purified STAT5 (Homo sapiens, UniProt P42229).
T2 construct: His; purchased SignalChem S56-54H
T2 sequence (P42229 1-794): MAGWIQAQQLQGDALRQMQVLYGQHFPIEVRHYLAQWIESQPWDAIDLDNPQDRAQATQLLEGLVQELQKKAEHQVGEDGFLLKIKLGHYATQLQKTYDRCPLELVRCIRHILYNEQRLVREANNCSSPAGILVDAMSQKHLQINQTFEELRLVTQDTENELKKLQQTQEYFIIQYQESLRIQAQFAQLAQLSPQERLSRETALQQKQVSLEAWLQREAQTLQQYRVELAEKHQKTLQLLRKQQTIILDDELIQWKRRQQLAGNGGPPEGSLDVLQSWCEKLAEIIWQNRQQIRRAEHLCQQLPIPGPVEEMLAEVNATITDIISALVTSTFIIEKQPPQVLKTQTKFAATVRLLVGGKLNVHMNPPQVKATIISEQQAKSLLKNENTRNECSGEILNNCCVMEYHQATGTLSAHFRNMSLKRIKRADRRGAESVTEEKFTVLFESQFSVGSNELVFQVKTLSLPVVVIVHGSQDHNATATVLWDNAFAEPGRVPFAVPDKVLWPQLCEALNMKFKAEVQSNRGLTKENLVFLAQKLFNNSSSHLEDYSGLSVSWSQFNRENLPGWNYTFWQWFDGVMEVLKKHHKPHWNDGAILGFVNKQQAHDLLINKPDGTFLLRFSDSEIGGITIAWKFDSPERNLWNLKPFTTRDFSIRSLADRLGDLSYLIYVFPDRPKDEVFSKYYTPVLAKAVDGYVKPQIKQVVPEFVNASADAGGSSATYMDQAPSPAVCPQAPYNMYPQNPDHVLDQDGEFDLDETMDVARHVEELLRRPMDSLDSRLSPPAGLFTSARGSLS
The series is described as follows: Gel-based STAT protein isoform labeling, STAT5. Type of series: biochemical. Particulars: 100 μM, 16 h, 4°C. The protocol: (§1) 1.0 μg of purified STAT3, STAT5, and STAT1 (SignalChem) were incubated with 100 uM of 4a for 16 h at 4°C. Samples were subjected to 4-20% SDS-PAGE and imaged using the Chemi-Doc MP (BIO-RAD).

Series [4] relates to pSTAT3 in MDA-MB-231 cells. Nature of the series: Immunoblotting for activated pSTAT3 levels in MDA-MB-231 cells. The format is cell-based. The conditions noted are these: increasing concentrations. The protocol: (§2) To investigate the reactivity of 4a in cell lysates, 5 × 10^6 MDA-MB-231 cells were lysed with 200 μL RIPA buffer (Sigma-Aldrich). Lysates were treated with 0-500 μM of compound for 16 h at 4°C and subjected to 4-20% SDS-PAGE. To investigate the in cellulo activity 2 × 10^6 MDA-MB-231 cells were seeded in […] dishes. The following day cells were treated with 0-200 μM of 4a at 37°C, 5% CO2 for 6 h. Cells were lysed using 200 μL RIPA buffer (Sigma-Aldrich) and the lysates were subjected to 4-20% SDS-PAGE. Gels were visualized using the Chemi-Doc MP system. (BIO-RAD). Total protein levels were visualized using Coomassie Brilliant Blue stain. An identical protocol was performed for 4b for direct comparison with 4a.
Lysates were reduced, boiled, subjected to 4-20% SDS-PAGE and transferred to LF-PVDF membranes. Membranes were blocked with 3% BSA and incubated with pSTAT3 (Abcam ab76315), STAT3 (Cell Signaling 4904) or B-Actin (Cell signaling 3700) at 4°C overnight. Membranes were then probed with either anti-mouse IgG Alexa Flour 488 (Cell Signaling 4408) or anti-rabbit IgG Alexa Fluor 647 (Cell Signaling 4414) for 1 h at room temperature. Membranes were visualized using the Chemi-Doc MP System (BIO-RAD).
(Immunoblotting shows a protein as a band on a membrane.)

For another series, the system named is MDA-MB-231 cells. Nature of the series: Live cell dosing of MDA-MB-231 cells, fluorescent protein labeling (SDS-PAGE). The format is cell-based. Particulars: 0, 50, 100, 200 μM, 6 h, 37°C. As for the experimental part:
as §2

The subject of another series is MDA-MB-231 cell lysates. The series is described as follows: Fluorescent labeling of MDA-MB-231 whole cell lysates (SDS-PAGE). Type of series: biochemical. Particulars: for fluorescent labeling of protein content of cell lysates, O-tosyl vs sulfonamide probe: 100 μM. The protocol:
as §2

The target in the next series is T3, purified STAT1 (Homo sapiens, UniProt P42224).
T3 construct: GST; purchased SignalChem S52-54G
T3 sequence (P42224 1-712 isoform P42224-2): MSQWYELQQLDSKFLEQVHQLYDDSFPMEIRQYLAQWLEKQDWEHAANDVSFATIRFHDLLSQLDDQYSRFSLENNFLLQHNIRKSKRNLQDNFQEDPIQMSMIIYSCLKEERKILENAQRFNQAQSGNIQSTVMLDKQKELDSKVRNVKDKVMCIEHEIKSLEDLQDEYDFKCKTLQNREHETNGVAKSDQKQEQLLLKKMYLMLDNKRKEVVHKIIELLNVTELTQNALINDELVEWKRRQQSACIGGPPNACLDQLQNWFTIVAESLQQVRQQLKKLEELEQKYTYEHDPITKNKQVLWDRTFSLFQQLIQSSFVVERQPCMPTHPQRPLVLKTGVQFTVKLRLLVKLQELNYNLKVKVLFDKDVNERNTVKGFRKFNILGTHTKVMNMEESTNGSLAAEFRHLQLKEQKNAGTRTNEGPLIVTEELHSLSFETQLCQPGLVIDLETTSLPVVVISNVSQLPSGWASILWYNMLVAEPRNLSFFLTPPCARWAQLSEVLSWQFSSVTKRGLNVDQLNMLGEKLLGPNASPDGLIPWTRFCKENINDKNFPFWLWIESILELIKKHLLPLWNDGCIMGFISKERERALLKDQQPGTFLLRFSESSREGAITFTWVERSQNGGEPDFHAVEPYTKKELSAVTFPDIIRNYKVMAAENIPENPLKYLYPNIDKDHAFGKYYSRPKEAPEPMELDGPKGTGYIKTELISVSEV
The series is described as follows: Gel-based STAT protein isoform labeling, STAT1. The format is biochemical. Particulars: 100 μM, 16 h, 4°C. As for the experimental part: as §1

For series [5], the target named is T1, purified STAT3. Nature of the series: Gel-based STAT protein isoform labeling, STAT3. Type of series: biochemical. The conditions noted are these: 100 μM, 16 h, 4°C. The protocol:
as §1

Entries after “also recorded” stand apart in the source; their conditions may differ.

Chain of recombinant, full-length STAT3 (P40763 whole entry): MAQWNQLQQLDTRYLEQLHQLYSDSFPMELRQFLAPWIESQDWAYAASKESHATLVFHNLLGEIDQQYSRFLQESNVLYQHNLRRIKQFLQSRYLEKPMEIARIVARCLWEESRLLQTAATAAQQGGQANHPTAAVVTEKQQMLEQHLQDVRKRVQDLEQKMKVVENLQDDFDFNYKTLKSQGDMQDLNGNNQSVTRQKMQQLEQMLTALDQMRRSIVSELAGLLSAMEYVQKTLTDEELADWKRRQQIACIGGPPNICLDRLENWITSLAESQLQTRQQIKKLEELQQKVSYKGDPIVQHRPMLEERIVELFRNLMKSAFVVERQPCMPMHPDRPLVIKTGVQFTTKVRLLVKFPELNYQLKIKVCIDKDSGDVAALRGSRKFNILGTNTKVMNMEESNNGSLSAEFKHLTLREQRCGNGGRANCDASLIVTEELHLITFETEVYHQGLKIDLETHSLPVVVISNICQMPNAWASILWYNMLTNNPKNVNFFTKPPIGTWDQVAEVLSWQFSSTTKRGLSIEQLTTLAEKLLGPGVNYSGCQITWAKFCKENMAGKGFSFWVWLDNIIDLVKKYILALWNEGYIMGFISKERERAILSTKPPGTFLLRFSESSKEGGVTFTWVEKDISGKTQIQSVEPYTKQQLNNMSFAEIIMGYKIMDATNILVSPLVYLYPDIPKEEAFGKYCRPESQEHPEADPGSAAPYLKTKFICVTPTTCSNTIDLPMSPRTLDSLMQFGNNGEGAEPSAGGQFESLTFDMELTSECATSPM
T1 sequence (P40763 whole entry): as above

Consider `C[C@@H]1C=C2C(=O)O[C@@H]3CC[C@H](C1)[C@]23O` [Galiellalactone], for which the “cysteine residues of STAT3 covalently modified (MS/MS analysis)” value with STAT3 was “covalently modified three cysteine residues (367, 468, and 542)”.
For the molecule `Cc1ccc(S(=O)(=O)NCC(=O)Nc2ccc(C(=O)O)c(O)c2)cc1` [DB-5-112], in series [1], the “K (kobs), one phase decay” value was found to be 2.725e-05 h⁻¹; the “Tau, one phase decay” value is 36701; the “reactivity with GSH” value is recorded as “no reactivity toward GSH”. The half-life (commonly the time in which the quantity being followed falls by half) at 100 μM in the series with glutathione (GSH) was 25400 h.
With `Cc1ccccc1CN(CC(=O)N(Cc1ccc(C2CCCCC2)cc1)c1ccc(C(=O)O)c(O)c1)S(=O)(=O)c1ccc(C(F)(F)F)cc1` [BP-5-087], in [1], the “K (kobs), one phase decay” value was determined as 0.1348 h⁻¹; the “Tau, one phase decay” value turned out to be 7.417; the “reactivity with GSH” value is listed as “negligible reactivity with GSH”. For the same molecule, the half-life at 100 μM in the series on glutathione (GSH) was 5.14 h.
`CN(CC(=O)N(Cc1ccc(C2CCCCC2)cc1)c1ccc(C(=O)O)cc1)S(=O)(=O)c1c(F)c(F)c(F)c(F)c1F` [SH-4-054]: in series [1], the “K (kobs), one phase decay” value came out at 0.5147 h⁻¹ and the “Tau, one phase decay” value stood at 1.943.
On to `Cc1ccc(S(=O)(=O)N(C)CC(=O)N(Cc2ccc(C3CCCCC3)cc2)c2ccc(C(=O)O)c(O)c2)cc1` [SF-1-066], for which, in [1], the “K (kobs), one phase decay” value is given as ~ 16.95 h^−1; the “Tau, one phase decay” value is given as ~ 0.05898; the “reactivity with GSH” value is on record as “negligible reactivity with GSH”. Further, the half-life at 100 μM in the series with glutathione (GSH) was around 0.0409 h.
Regarding `Cc1ccc(S(=O)(=O)OCC(=O)Nc2ccc(C(=O)O)c(O)c2)cc1` [S3I-201], the IC50 with activated STAT3 dimer is 86 µM; at STAT3:DNA binding, around 100 µM. For the same molecule, the “K (kobs), one phase decay” value in series [1] stood at 2.735 h⁻¹. The “Tau, one phase decay” value in series [1] came out at 0.3657. For the same molecule, the “cysteine residues of STAT3 covalently modified (LC-MS/MS)” value in [2] is “covalently modified Cys108, Cys259, Cys367, Cys542, and Cys687; also recorded: five specific sites of modification, cysteine's 108, 259, 367, 542, and 687; also recorded: Cys residues (418, 426, and 712) were not alkylated”.
Consider `CN(CC(=O)N(Cc1ccc(C2CCCCC2)cc1)c1ccc(C(=O)O)c(O)c1)S(=O)(=O)c1c(F)c(F)c(F)c(F)c1F` [BP-1-102], for which, in series [1], the “K (kobs), one phase decay” value is 0.5322 h⁻¹ and the “Tau, one phase decay” value was determined as 1.879.
As for `O=[N+]([O-])c1ccc2c(c1)S(=O)(=O)C=C2` [Stattic], the “cysteine residues of STAT3 modified” value in the series with STAT3 was “Cys251, 259, 367, and 426”.
Regarding `Cc1ccc(S(=O)(=O)OCC(=O)N(Cc2cn(CCOCCOCCOCCNS(=O)(=O)c3cccc4c(N(C)C)cccc34)nn2)c2ccc(C(=O)O)c(O)c2)cc1` [4a], the “fluorescent labeling of purified STAT3 over time course” value on purified STAT3 [3] is “time dependent increase in fluorescent signal”. On purified STAT5, the “fluorescent labeling of purified STAT5” value is recorded as “non-specific fluorescent labeling of all three STAT isoforms”. For the same molecule, in series [4], the “pSTAT3 levels (immunoblot)” value is given as “dose-dependent decrease in pSTAT3 levels”. The “fluorescent labeling of intracellular proteins in whole cells” value in the series on MDA-MB-231 cells was “increasing levels of fluorescent intensities following the dose of reporter”; with MDA-MB-231 cells (listed as DB-6-055) it was “non-specifically and globally alkylated intracellular proteins”. The “fluorescent labeling of protein content of cell lysates” value in the series on MDA-MB-231 cell lysates (0, 100, 250, 500 μM, 16 h, 4°C) was “pronounced, non-specific, global labeling of the protein content”. For the same molecule, in the series with MDA-MB-231 cell lysates, the “fluorescent labeling of protein content of cell lysates, O-tosyl vs sulfonamide probe” value is on record as “promiscuously modified”. Further, on purified STAT1, the “fluorescent labeling of purified STAT1” value was “non-specific fluorescent labeling of all three STAT isoforms”. For the same molecule, the “fluorescent labeling of purified STAT3” value at purified STAT3 [5] was “non-specific fluorescent labeling of all three STAT isoforms”.
Regarding `Cc1ccc(S(=O)(=O)NCC(=O)N(Cc2cn(CCOCCOCCOCCNS(=O)(=O)c3cccc4c(N(C)C)cccc34)nn2)c2ccc(C(=O)O)c(O)c2)cc1` [4b], the “fluorescent labeling of protein content of cell lysates, O-tosyl vs sulfonamide probe” value in the series with MDA-MB-231 cell lysates is given as “no observable fluorescent enhancement”.
